Source: patent US12065445B2, “CDK2 inhibitors and methods of using the same” (Cedilla Therapeutics, Inc., priority 2021, dated 2024)
pIC50: −log10 of the molar value.

Key:
[1] = tested on: Kuramochi cells labeled with mApple-H2B; experiment: IncuCyte Cell Proliferation Assay; format: cell-based
Outline: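 GI50 came from dose-response fits of cell-count fold change between 0 and 72 h, normalized to DMSO controls. Counts were fluorescent nuclei from live-cell images over a 10-point, ½ log series starting at 20 μM.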

[2] = tested on: Kuramochi cells; experiment: BrdU Cell Proliferation Assay; format: cell-based; details: read-out: BrdU - KURAMOCHI.1: IC50
Outline: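 Signal is 450 nm absorbance from a peroxidase anti-BrdU ELISA after a 1-hour BrdU label, background-subtracted and normalized to DMSO-treated wells. Kuramochi cells (2,000 per well) had been exposed to compound for 4 days. Dosing used a 10-point dose response in 3-fold steps.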

Compound | pIC50 ([1]; 72 h) | pIC50 [2] | pIC50 ([1]; 72 hours)
CNC(=O)[C@@H](NC(=O)[C@@H]1CN(Cc2cncs2)CC12CN(C(=O)[C@H]1CC1(C)C)C2)[C@@H](C)OCc1ccccc1 [I-51A] | 4.70 to 5.30 | 5.00 to 5.30 | 
C[C@@H](OCc1ccccc1)[C@H](NC(=O)C1CN(C(=O)c2cnn(Cc3ccccc3)c2)CC12CN(C(=O)[C@H]1CC1(C)C)C2)C(=O)N1CCCCC1 (stereo partly drawn) [I-97, 6-(1-benzyl-1H-pyrazole-4-carbonyl)-N-((2S,3R)-3-(benzyloxy)-1-oxo-1-(piperidin-1-yl)butan-2-yl)-2-((S)-2,2-dimethylcyclopropanecarbonyl)-2,6-diazaspiro[3.4]octane-8-carboxamide] | 5.30 to 6.30 | 5.30 to 6.30 | 
C[C@@H]1C[C@H](C)CN(C(=O)[C@@H](NC(=O)C2CN(C(=O)c3cnn(Cc4ccccc4)c3)CC23CN(C(=O)[C@H]2CC2(C)C)C3)[C@@H](C)OCC2CCCCC2)C1 (stereo partly drawn) [I-104] | 5.30 to 6.30 | ≥ 6.30 | 
C[C@@H](OCC1CCCCC1)[C@H](NC(=O)C1CN(C(=O)c2cnn(Cc3ccccc3)c2)CC12CN(C(=O)[C@H]1CC1(C)C)C2)C(=O)N1CCCC(CO)C1 (stereo partly drawn) [I-105] | ≥ 6.30 | ≥ 6.30 | 
C[C@@H](OCC1CCCCC1)[C@H](NC(=O)C1CN(C(=O)c2cnn(Cc3ccccc3)c2)CC12CN(C(=O)[C@H]1CC1(C)C)C2)C(=O)N1CC2(CCC2)C1 (stereo partly drawn) [I-107] | ≥ 6.30 | ≥ 6.30 | 
CNC(=O)[C@@H](NC(=O)[C@H]1CN(C(=O)c2cnn(Cc3ccccc3)c2)CC12CN(C(=O)[C@H]1CC1(C)C)C2)[C@@H](C)OCC1CCCC1 [I-110B] | 4.70 to 5.30 | 5.00 to 5.30 | 
C[C@@H](OCC1CCCCC1)[C@H](NC(=O)[C@@H]1CN(C(=O)c2cnn(C(F)(F)F)c2)CC12CN(C(=O)[C@H]1CC1(C)C)C2)C(=O)N1CCCCC1 [I-115] | 4.70 to 5.30 | < 5.00 | 
CC(=O)N1C[C@@H](C(=O)N[C@H](C(=O)N2CCCCC2)[C@@H](C)OCC2CCCCC2)C2(C1)CN(C(=O)[C@H]1CC1(C)C)C2 [I-118] | < 4.70 | < 5.00 | 
C[C@@H](OCC12CCC(CC1)OC2)[C@H](NC(=O)[C@@H]1CN(C(=O)c2cncs2)CC12CN(C(=O)[C@H]1CC1(C)C)C2)C(=O)N1CCC(C)(C)CC1 [I-452] | ≥ 6.30 |  | 
C[C@@H](OCC12CCC(CC1)OC2)[C@H](NC(=O)[C@@H]1CN(C(=O)c2cncs2)CC12CN(C(=O)[C@H]1CC1(C)C)C2)C(=O)N1CCCC2(COC2)C1 [I-453] | 4.70 to 5.30 |  | 
C[C@@H](OCC12CCC(CC1)OC2)[C@H](NC(=O)[C@@H]1CN(C(=O)c2cncs2)CC12CN(C(=O)[C@H]1CC1(C)C)C2)C(=O)N1CCC(C(F)(F)F)CC1 [I-454, (S)—N-((2S,3R)-3-((2-oxabicyclo[2.2.2]octan-4-yl)methoxy)-1-oxo-1-(4-(trifluoromethyl)piperidin-1-yl)butan-2-yl)-2-((S)-2,2-dimethylcyclopropane-1-carbonyl)-6-(thiazole-5-carbonyl)-2,6-diazaspiro[3.4]octane-8-carboxamide] | 5.30 to 6.30 |  | 
Cc1nc(C)c(C(=O)N2C[C@@H](C(=O)N[C@H](C(=O)N3CCC(OC(F)(F)F)CC3)[C@@H](C)OCC34CCC(CC3)OC4)C3(C2)CN(C(=O)[C@H]2CC2(C)C)C3)s1 [I-455] | 5.30 to 6.30 |  | 
Cc1nc(C)c(C(=O)N2C[C@@H](C(=O)N[C@H](C(=O)N3CCC(C(F)(F)F)CC3)[C@@H](C)OCC34CCC(CC3)OC4)C3(C2)CN(C(=O)[C@H]2CC2(C)C)C3)s1 [I-456] | 5.30 to 6.30 |  | 
C[C@@H](OCC12CCC(CC1)OC2)[C@H](NC(=O)[C@@H]1CN(C(=O)c2cncs2)CC12CN(C(=O)[C@H]1CC1(C)C)C2)C(=O)N1CCC(OC(F)(F)F)CC1 [I-457] | 5.30 to 6.30 |  | 
C[C@@H](OCC12CCC(CC1)OC2)[C@H](NC(=O)[C@@H]1CN(C(=O)c2cncs2)CC12CN(C(=O)[C@H]1CC1(C)C)C2)C(=O)N1CCC2(CC1)CC2 [I-458] | 5.30 to 6.30 |  | 
[2H]C([2H])([2H])OC[C@H]1CCCN(C(=O)[C@@H](NC(=O)[C@@H]2CN(C(=O)c3cncs3)CC23CN(C(=O)C(C)(C)C2CC2)C3)[C@@H](C)OCC23CCC(CC2)OC3)C1 [I-459] | 4.70 to 5.30 |  | 

Compound | pIC50 ([1]; 72 h) | pIC50 [2] | pIC50 ([1]; 72 hours)
C[C@@H](OCC12CCC(CC1)OC2)[C@H](NC(=O)[C@@H]1CN(C(=O)c2cncs2)CC12CN(C(=O)[C@H]1CC1(C)C)C2)C(=O)N1CCC[C@H](COC(F)(F)F)C1 [I-460] | 5.30 to 6.30 |  | 
C[C@@H](OCC12CCC(CC1)OC2)[C@H](NC(=O)[C@@H]1CN(C(=O)c2cncs2)CC12CN(C(=O)[C@H]1CC1(C)C)C2)C(=O)N1CCC[C@H](COC(F)F)C1 [I-461] | 5.30 to 6.30 |  | 
COC[C@H]1CCCN(C(=O)[C@@H](NC(=O)[C@@H]2CN(C(=O)c3cncs3)CC23CN(C(=O)[C@H]2CC2(C)C)C3)[C@@H](C)O[C@@H](C)C2CCCCC2)C1 [I-467] |  |  | 5.30 to 6.30
C[C@@H](OCc1ccc(C(F)(F)F)cc1)[C@H](NC(=O)[C@@H]1CN(C(=O)c2cncs2)CC12CN(C(=O)[C@H]1CC1(C)C)C2)C(=O)N1C2CCC1COC2 [I-470] | 5.30 to 6.30 |  | 
C[C@@H](OCC12CCC(CC1)OC2)[C@H](NC(=O)[C@@H]1CN(C(=O)c2sc(Cl)nc2Cl)CC12CN(C(=O)C(C)(C)C1CC1)C2)C(C)(C)O [I-471] | < 4.70 |  | 
CNC(=O)[C@@H](NC(=O)[C@@H]1CN(C(=O)c2cnn(Cc3ccc(C(=O)O)cc3)c2)CC12CN(C(=O)[C@H]1CC1(C)C)C2)[C@@H](C)OCc1ccccc1 [I-476] | < 4.70 |  | 
C[C@@H](OCC1CCCCC1)[C@H](NC(=O)[C@@H]1CN(C(=O)c2cnn(Cc3ccccc3)c2)CC12CN(C(=O)[C@H]1CC1(C)C)C2)C(=O)O [I-477] | < 4.70 |  | 
C[C@@H](OCC1CCCCC1)[C@H](NC(=O)[C@@H]1CN(C(=O)c2cnn(Cc3ccccc3)c2)CC12CN(C(=O)[C@H]1CC1(C)C)C2)C(=O)NCCC(=O)OC(C)(C)C [I-478] | ≥ 6.30 |  | 
CC1(C)C[C@@H]1C(=O)N1CC2(CN(C(=O)c3cncs3)C[C@H]2C(=O)NC(c2cccc(C3CCCCC3)n2)C2CCOC2)C1 (stereo partly drawn) [I-493] | 4.70 to 5.30 |  | 
CC1(C)C[C@@H]1C(=O)N1CC2(CN(C(=O)c3cncs3)C[C@H]2C(=O)NC(c2cccc(C3CCCCC3)n2)C2CCCO2)C1 (stereo partly drawn) [I-495] | 5.30 to 6.30 |  | 
CC1(C)C[C@@H]1C(=O)N1CC2(CN(C(=O)c3cncs3)C[C@H]2C(=O)NC(c2cccc(C3CCOCC3)n2)C2CCCO2)C1 (stereo partly drawn) [I-497] | < 4.70 |  | 
CNC(=O)[C@@H](NC(=O)C1(C)CN(C(=O)c2cnn(Cc3ccccc3)c2)CC12CN(C(=O)[C@H]1CC1(C)C)C2)[C@@H](C)OCc1ccccc1 (stereo partly drawn) [I-498, 6-(1-benzyl-1H-pyrazole-4-carbonyl)-N-((2S,3R)-3-(benzyloxy)-1-(methylamino)-1-oxobutan-2-yl)-2-((S)-2,2-dimethylcyclopropane-1-carbonyl)-8-methyl-2,6-diazaspiro[3.4]octane-8-carboxamide] | < 4.70 |  | 
CNC(=O)[C@@H](NC(=O)[C@]1(C)CN(C(=O)c2cnn(Cc3ccccc3)c2)CC12CN(C(=O)[C@H]1CC1(C)C)C2)[C@@H](C)OCC1CCCCC1 [I-499A] | < 4.70 |  | 
CNC(=O)[C@@H](NC(=O)[C@@]1(C)CN(C(=O)c2cnn(Cc3ccccc3)c2)CC12CN(C(=O)[C@H]1CC1(C)C)C2)[C@@H](C)OCC1CCCCC1 [I-499B] | < 4.70 |  | 
CNC(=O)[C@@H](NC(=O)C1(F)CN(C(=O)c2cnn(Cc3ccccc3)c2)CC12CN(C(=O)[C@H]1CC1(C)C)C2)[C@@H](C)OCC1CCCCC1 (stereo partly drawn) [I-501] | 5.30 to 6.30 |  | 
